For data set [1], the system named is IL-1β, human whole blood. As to the kind of experiment: Whole blood assay for IL-1β production. Type of data set: cell-based. Conditions: read-out: Whole human blood IC50. In short, it runs like this: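 Human whole blood collected on Na2EDTA was treated with serially diluted compound in saline and then stimulated with LPS at 5.0 ng/ml final, for 16-18 h at 30 °C, in duplicate or triplicate. Plasma IL-1β was measured by ELISA at 1:200 dilution.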

For data set [2], the target named is T1, ICE (Homo sapiens, UniProt P29466).
T1 sequence (P29466 120-297 limits assumed): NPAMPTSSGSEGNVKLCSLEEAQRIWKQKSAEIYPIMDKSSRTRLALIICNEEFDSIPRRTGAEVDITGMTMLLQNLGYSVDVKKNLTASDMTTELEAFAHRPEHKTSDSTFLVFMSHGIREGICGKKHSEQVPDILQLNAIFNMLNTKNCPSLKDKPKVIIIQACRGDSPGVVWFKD
T1 sequence (P29466 317-404 limits assumed): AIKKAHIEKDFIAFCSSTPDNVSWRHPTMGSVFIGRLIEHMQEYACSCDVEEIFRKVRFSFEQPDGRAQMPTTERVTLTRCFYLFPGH
Description: Enzyme assay with UV-visible substrate (visible ICE assay, Succinyl-Tyr-Val-Ala-Asp-pNitroanilide). Type of data set: biochemical. In short, it runs like this: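 ICE preincubated with inhibitor in DMSO for 15 min at room temperature, then Suc-Tyr-Val-Ala-Asp-pNA added. pNA release read at 405-603 nm for 20 min at 37 °C, rate from linear fit in mOD/min. Ki and inhibition mode from fits of rates at varying inhibitor concentrations to standard kinetic equations.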

A short description of data set [3]: In vivo rat clearance assay. The note with it: plasma, iv. In short, it runs like this:
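Rats cannulated a day beforehand received 10–20 mg/kg by intravenous jugular dosing in propylene glycol/saline with 100 mM sodium bicarbonate. Carotid blood was sampled from 0 to 90 min, and plasma was extracted with acetonitrile/0.1% TFA for HPLC quantification. Clearance from non-linear regression pharmacokinetic analysis.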

The mark [4] stands for this setting: Homo sapiens, * = values obtained upon reassay.
[5] abbreviates: * = values obtained upon reassay.

pIC50, pKi: −log10 of the molar value. Read-outs that look alike come from different tables or passages of the source.

For the molecule `O=C[C@H](CC(=O)O)NC(=O)[C@@H]1CCCN2C(=O)CC[C@H](NC(=O)c3ccsc3)C(=O)N12` [Compound 410], in data set [1] (setting [4]), the pIC50 was 5.55. Also, the pKi in data set [2] (Table 5) was 7.77. In data set [3] (10-20 mg/kg), this molecule displayed a clearance of 20 mL/min/kg.

In the case of `O=C[C@H](CC(=O)O)NC(=O)CN1C(=O)[C@@H](NC(=O)c2nccc3ccccc23)CN(C(=O)CO)c2ccccc21` [Compound 696, (3S)-3-[(3S)-2-Oxo-3-(isoquinolin-1-oyl)amino-5-hydroxyacetyl-2,3,4,5-tetrahydro-1H-1,5-benzodiazepine-1-acetylamino]-4-oxo-butyric acid], the pIC50 in data set [1] (Homo sapiens, Table 17) is 5.54. In addition, the pKi in data set [2] (Table 17) was 8.35. Further, the clearance in data set [3] (Table 17) is 13 mL/min/kg.

For the molecule `O=C[C@H](CC(=O)O)NC(=O)[C@@H]1CCCN2C(=O)CC[C@H](NC(=O)c3nccc4ccccc34)C(=O)N12` [Compound 412, [3S(1S,9S)]3-[6,10-Dioxo-9-(isoquinolin-1-oylamino)-1,2,3,4,7,8,9,10-octahydro-6H-pyridazino[1,2-a][1,2]diazepine-1-carboxamido]-4-oxobutanoic acid], the pIC50 in data set [1] (setting [5]) is 6.00; in data set [1] (setting [4]) it was 6.15. This molecule showed a pKi in data set [2] (Table 5) of 8.89. In data set [3] (10-20 mg/kg), this molecule yielded a clearance of 25 mL/min/kg.

As to `CC(=O)Nc1cccc(C(=O)N[C@H]2CCC(=O)N3CCC[C@@H](C(=O)N[C@H](C=O)CC(=O)O)N3C2=O)c1` [Compound 450, [3S(1S,9S)]3-{9-[(3-Acetamido)benzamido]-6,10-dioxo-1,2,3,4,7,8,9,10-octahydro-6H-pyridazino[1,2-a][1,2]diazepine-1-carboxamido}-4-oxobutanoic acid], the pIC50 in data set [1] (setting [5]) was 5.77; in data set [1] (setting [4]), 5.66. In data set [2] (Table 5), this molecule had a pKi of 8.30. Besides, the clearance in data set [3] (10-20 mg/kg) stood at 12 mL/min/kg.

On to `O=C[C@H](CC(=O)O)NC(=O)[C@@H]1CCCN2C(=O)CCN(NS(=O)(=O)c3ccccc3)C(=O)N12` [Compound 1027, [3S(4S)]3-(6,10-Dioxo-1,2,3,4,7,8,9,10-octahydro-7-phenylsulphonylamino-6H-pyridazino[1,2-a][1,2,4]triazepine-4-carboxamido)-4-oxobutanoic acid], for which, in data set [1] (setting [4]), the pIC50 is under 4.70. Besides, the pKi in data set [2] (Table 5) is 5.40. Moreover, in data set [3] (10-20 mg/kg), the clearance amounted to 60 mL/min/kg.

As usually defined, the pIC50 is the IC50 on a negative log10 scale, so that one unit is a factor of ten. What is called pKi is −log10 of the Ki, conventionally taken in molar units. The low end stands for a high Ki, the high end for a low Ki. Usually clearance stands for the rate of elimination divided by the concentration.

The values are drawn from patent US20120165319A1, “INHIBITORS OF INTERLEUKIN-1 BETA CONVERTING ENZYME” (VERTEX PHARMACEUTICALS INCORPORATED, priority 1995, published 2012).
